Measured values taken from US8383637B2, “2-amino-quinazoline derivatives useful as inhibitors of β-secretase (BACE)” (Jansssen Pharmaceutica N.V., priority 2004, dated 2013).

Columns and labels:
Format in all cases: biochemical
β-secretase(BACE) [1] = target: T1, β-secretase(BACE) (Homo sapiens, UniProt P56817); test: BACE % Inhibition Assay ((Aedens)-[…]-(Dabcyl K-amide) substrate)
T1 construct: purchased Panvera
Method: The substrate stock solution was prepared in DMSO as a 10 mg/mL solution. The substrate working solution was prepared by diluting the 10 mg/mL stock solution with substrate assay buffer to a final concentration of 300 μg/mL. The β-secretase (BACE) working solution was prepared by diluting a 0.83 mg/mL BACE stock solution with enzyme assay buffer to a final concentration of 4 μg/mL.
Test compounds were dissolved in DMSO to 10 mM.
The screening procedure for this assay was as follows: 15 μL of BACE working solution was pipetted into each well of a 96-well plate. To each well was then pipetted 2 μL of test compound at the selected concentration. Test compound and BACE were then mixed with a pipettor and incubated for 20 min at room temperature. To each well was then added 10 μL of the substrate working solution. The plates were then incubated for 1 hour at room temperature.
The procedure for the blank was as follows. 15 μL of assay buffer was pipetted into each well to be used as a blank control. To each well was then added 2 μL of vehicle and 10 μL of substrate working solution. The plates were then incubated for 1 hour at room temperature.
The procedure for the positive control was as follows: 15 μl of BACE working solution was pipetted into each well to be used as a positive control. To each well was then pipetted 2 μL of vehicle. Vehicle and BACE were then mixed with a pipettor and incubated for 20 min at room temperature. To each well was then added 10 μL of the substrate working solution. The plates were then incubated for 1 hour at room temperature.
For test compounds, % inhibition was determined at each concentration as follows: […]

β-secretase(BACE) [2] = target: T1, β-secretase(BACE); test: BACE Assay-1 (MCA-substrate, IC50); conditions: procedure of Example 158; read-out: IC50 μM (158)
Method in brief: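 Human BACE (work solution 10 μg/mL) with MCA-peptide substrate (stock 2.0 mg/mL) in 0.05 M citrate buffer, pH 5.0, with PEG8000. Fluorescence read at T0 and T60; compounds tested at multiple concentrations and IC50 calculated from these readings.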

β-secretase(BACE) [3] = target: T1, β-secretase(BACE); test: BACE FS1% Inhibition Assay; conditions: FS1 substrate; for inhibition at 0.3 µM / % Inhibition (FS) 0.3 μM: 0.3 μM test compound; for inhibition at 0.3 µM: read-out: % Inhibition (FS) 0.3 μM; for inhibition at 1 µM / % Inhibition (FS) 1 μM: 1 μM test compound; for inhibition at 1 µM: read-out: % Inhibition (FS) 1 μM; for inhibition at 3 µM / % Inhibition (FS) 3 μM: 3 μM test compound
Method in brief: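 Percent inhibition at each tested concentration, referenced to enzyme-free blank and vehicle-only positive control. Reaction: compound and BACE (4 μg/mL working stock) mixed 20 min at room temperature before FS1 substrate (300 μg/mL working stock), then 1 h at room temperature.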

β-secretase(BACE) [4] = target: T1, β-secretase(BACE); test: BACE Assay-2 (FS1 substrate, IC50 and Ki); conditions: procedure of Example 159, FS1 substrate; for Ki: read-out: Ki μM (159)
[5] = 3 μM test compound, % error ±10%
[6] = 10 μM test compound, % error ±10%
[7] = read-out: % Inhibition (FS) 3 μM

T1 sequence (P56817 46-501): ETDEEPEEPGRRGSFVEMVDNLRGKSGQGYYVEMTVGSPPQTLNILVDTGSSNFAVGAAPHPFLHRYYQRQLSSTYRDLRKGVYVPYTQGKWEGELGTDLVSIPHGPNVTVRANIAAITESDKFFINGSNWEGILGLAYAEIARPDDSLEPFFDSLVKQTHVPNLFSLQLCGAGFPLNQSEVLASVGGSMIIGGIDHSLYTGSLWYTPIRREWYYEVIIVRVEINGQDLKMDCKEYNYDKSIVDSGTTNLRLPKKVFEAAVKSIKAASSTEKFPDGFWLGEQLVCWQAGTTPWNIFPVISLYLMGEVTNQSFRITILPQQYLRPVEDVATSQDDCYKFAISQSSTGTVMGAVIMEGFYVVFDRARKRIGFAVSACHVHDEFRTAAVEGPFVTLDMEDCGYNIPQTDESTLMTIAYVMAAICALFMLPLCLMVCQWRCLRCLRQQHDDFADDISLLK

| SMILES | IC50 (β-secretase(BACE) [2]) [µM] | inhibition at 0.3 µM (β-secretase(BACE) [3]) [%] | inhibition at 1 µM (β-secretase(BACE) [3]) [%] | inhibition at 3 µM (β-secretase(BACE) [3]; [7]) [%] | Ki (β-secretase(BACE) [4]) [µM] | also measured |
| --- | --- | --- | --- | --- | --- | --- |
| CCCN1Cc2cc(Oc3cccc(NC(=O)C4CCCCC4)c3)ccc2N=C1N [Compound 44] |  |  |  |  |  | % Inhibition (β-secretase(BACE) [1]; [5]): <30%; % Inhibition (β-secretase(BACE) [1]; [6]): 31% |
| CCCN1Cc2cc(Oc3cccc(N(C#N)CC4CCCCC4)c3)ccc2N=C1N [Compound 56] |  |  |  |  |  | % Inhibition (β-secretase(BACE) [1]; [5]): 35%; % Inhibition (β-secretase(BACE) [1]; [6]): 79% |
| CN(C(=O)c1cccc(CN2Cc3cc(Oc4ccccc4)ccc3N=C2N)c1)C1CCCCC1 [Compound 62, 3-(2-Amino-6-phenoxy-4H-quinazolin-3-ylmethyl)-N-cyclohexyl-N-methyl-benzamide] |  |  |  |  |  | inhibition at 3 µM (β-secretase(BACE) [1]): 62%; inhibition at 10 µM (β-secretase(BACE) [1]): 82%; % Inhibition (β-secretase(BACE) [1]; 3 µM): 73%; % Inhibition (β-secretase(BACE) [1]; 10 µM): 82% |
| CCOC(=O)CCN1Cc2cc(Oc3ccccc3)ccc2N=C1N [Compound 65] |  |  |  |  |  | % Inhibition (β-secretase(BACE) [1]; [5]): <30%; % Inhibition (β-secretase(BACE) [1]; [6]): <30% |
| CN(C(=O)[C@@H]1CCC[C@@H]1N1Cc2cc(Oc3ccccc3)ccc2N=C1N)C1CCCCC1 [Compound 72] |  |  |  |  |  | % Inhibition (β-secretase(BACE) [1]; [5]): <30%; % Inhibition (β-secretase(BACE) [1]; [6]): <30% |
| CN(C(=O)[C@@H]1CC[C@H](N2Cc3cc(Oc4ccccc4)ccc3N=C2N)C1)C1CCCCC1 [Compound 77] |  |  |  |  |  | % Inhibition (β-secretase(BACE) [1]; [5]): <30%; % Inhibition (β-secretase(BACE) [1]; [6]): <30% |
| CCN(CC)CCN1Cc2cc(Oc3ccccc3)ccc2N=C1N [Compound 79] |  |  |  |  |  | % Inhibition (β-secretase(BACE) [1]; [5]): <30%; % Inhibition (β-secretase(BACE) [1]; [6]): <30% |
| COc1ccc(C(CCC(=O)N(C)C2CCCCC2)N2Cc3cc(Oc4ccccc4)ccc3N=C2N)cc1 (centres unmarked) [Compound 298] | 0.22 | < 30 | 75 | 110 | 0.23 |  |
| CC(C)C(=O)NCC(C1CCCCC1)N1Cc2cc(Oc3ccccc3)ccc2N=C1N (centres unmarked) [Compound 301] | 0.15 |  |  |  | 0.21 | % Inhibition (FS) 0.3 μM (β-secretase(BACE) [3]): <30%; % Inhibition (FS) 1 μM (β-secretase(BACE) [3]): 82%; % Inhibition (FS) 3 μM (β-secretase(BACE) [3]): 106% |
| CCCC(CCC)C(=O)NCC(C1CCCCC1)N1Cc2cc(Oc3ccccc3)ccc2N=C1N (centres unmarked) [Compound 302] | 0.05 | < 30 | 72 | 108 | 0.14 |  |
| CCCCC(CC)C(=O)NCC(C1CCCCC1)N1Cc2cc(Oc3ccccc3)ccc2N=C1N (centres unmarked) [Compound 303] | 0.062 | < 30 | 70 | 109 | 0.24 |  |
| NC1=Nc2ccc(Oc3ccccc3)cc2CN1C(CNC(=O)CC1CCCC1)C1CCCCC1 (centres unmarked) [Compound 311] | 0.02 |  |  |  | 0.05 | % Inhibition (FS) 0.3 μM (β-secretase(BACE) [3]): 74%; % Inhibition (FS) 1 μM (β-secretase(BACE) [3]): 108%; % Inhibition (FS) 3 μM (β-secretase(BACE) [3]): 118% |
| CN(C(=O)c1cccc(CN2Cc3cc(-c4ccccc4CC#N)ccc3N=C2N)c1)C1CCCCC1 [Compound 325] | 0.089 | < 30 | 86 | 110 | 0.1 |  |

Now from value to molecule, other results behind:

| IC50 (β-secretase(BACE) [2]) [µM] | inhibition at 0.3 µM (β-secretase(BACE) [3]) [%] | inhibition at 1 µM (β-secretase(BACE) [3]) [%] | inhibition at 3 µM (β-secretase(BACE) [3]; [7]) [%] | Ki (β-secretase(BACE) [4]) [µM] | SMILES | also measured |
| --- | --- | --- | --- | --- | --- | --- |
| 0.012 | 92 | 109 | 118 | 0.02 | CCOc1ccccc1-c1ccc2c(c1)CN(Cc1cccc(C(=O)N(C)C3CCCCC3)c1)C(N)=N2 [Compound 329] |  |
| 0.048 | < 30 | 66 | 114 | 0.21 | CN(C(=O)c1cccc(CN2Cc3cc(-c4cccc5ccccc45)ccc3N=C2N)c1)C1CCCCC1 [Compound 330] |  |
| 0.089 | < 30 | 60 | 108 | 0.19 | CN(C(=O)c1cccc(CN2Cc3cc(-c4ccccc4Br)ccc3N=C2N)c1)C1CCCCC1 [Compound 331] |  |
| 0.14 | 46 | 85 | 111 | 0.074 | CN(CCN1Cc2cc(Oc3ccccc3)ccc2N=C1N)C(=O)OC(C)(C)C [Compound 425, [2-(2-Amino-6-phenoxy-4H-quinazolin-3-yl)-ethyl]-methyl-carbamic acid tert-butyl ester] |  |
| 0.011 | 97 | 112 | 121 | 0.019 | CC(C)[C@H](CCC(=O)N(C)C1CCCCC1)N1Cc2cc(Oc3ccccc3)ccc2N=C1N [Compound 450] |  |
| 0.067 | 19.9 | 66 | 102 | 0.28 | CN(C(=O)c1cccc(CN2Cc3cc(Sc4ccccc4)ccc3N=C2N)c1)C1CCCCC1 [Compound 476] |  |
| 0.012 | 100 | 112 | 123 | 0.017 | NC1=Nc2ccc(Oc3ccccc3)cc2CN1[C@@H](CNC(=O)C1CCCCC1)C1CCCCC1 [Compound 485, Cyclohexanecarboxylic acid [2-(2-amino-6-phenoxy-4H-quinazolin-3-yl)-2-(R)-cyclohexyl-ethyl]-amide] |  |
| 0.36 | 38 | 44 | 93 | 0.26 | COc1ccccc1-c1ccc2c(c1)CN(CCNC(=O)C1CCCCC1)C(N)=N2 [Compound 487] | % Inhibition (FS) 0.3 μM (β-secretase(BACE) [3]; 0.3 µM): <30%; % Inhibition (FS) 1 μM (β-secretase(BACE) [3]; 1 µM): 32%; % Inhibition (FS) 3 μM (β-secretase(BACE) [3]; 3 µM): 95% |
| 0.25 | < 30 | 75 | 106 | 0.1 | C[C@H](CNC(=O)C1CCCCC1)N1Cc2cc(Oc3ccccc3)ccc2N=C1N [Compound 495, (R)-Enantiomer of cyclohexanecarboxylic acid [2-(2-amino-6-phenoxy-4H-quinazolin-3-yl)-propyl]-amide] |  |
| 0.018 | 112 | 119 | 129 | 0.011 | CC(C)CCC(=O)NC[C@@H](C(C)C)N1Cc2cc(Oc3ccccc3)ccc2N=C1N [Compound 564] |  |
| 0.21 |  |  |  | 0.27 | CCCN1Cc2cc(Oc3cccc(NC(=O)CCCC(=O)N(C)C4CCCCC4)c3)ccc2N=C1N [Compound 755] | inhibition at 3 µM (β-secretase(BACE) [3]; read-out: % Inhibition (FS)): 59%; inhibition at 10 µM (β-secretase(BACE) [3]; 10 μM test compound, read-out: % Inhibition (FS)): 79%; IC50 (β-secretase(BACE) [4]): 1.9 µM |
